From PMC11571215, “Optimization of Antiproliferative Properties of Triimine Copper(II) Complexes” (Journal of Medicinal Chemistry, 2024)

Columns and labels:
pUC18 plasmid DNA (pDNA) = assay: Plasmid DNA interaction and cleavage (gel electrophoresis); details: 24 h; for pDNA cleavage / isoform change: 100 ng pUC18, 5–100 μM complex, 37 °C; for pDNA cleavage in presence of NaN3 scavenger: 50 μM complex + 50 μM NaN3, 37 °C; for pDNA cleavage in presence of H2O2: 50 μM complex + 100 μM H2O2, 37 °C
Experimental: The procedure involved exposing 100 ng of pDNA (pUC18) to increasing concentrations of complexes Cu1a and Cu1b (5, 25, 50, 75, and 100 μM), which were incubated at 37 °C for 24 h.
The sodium azide (NaN3) scavenger, capable of quenching singlet oxygen (^−1O2), was used for this purpose.[93] Additionally, hydrogen peroxide (H2O2) was employed as a well-known positive control for DNA cleavage through oxidative mechanisms in the presence of ROS.[71]
Experiments were conducted with 100 ng of pUC18 DNA incubated with increasing concentrations of Cu1a and Cu1b complexes (5, 25, 50, 75, and 100 μM) or in their absence (pUC18 only or with 0.1% DMSO (v/v), both negative controls). For this assay, positive control was included, containing pUC18 DNA (100 ng) previously incubated with the HindIII enzyme to linearize the plasmid in the last 2 h of incubation. […] Electrophoresis was performed in 0.8% (w/v) agarose gel (NZYtech) in TAE 1× buffer at a constant voltage of 70 V for 80 min. The electrophoresis gel image was acquired using the Gel Doc EZ Imager (Bio-Rad), and band quantification was performed using ImageJ software.
The pDNA (100 ng) was exposed to reactive oxygen species (ROS) scavenging agents, namely, sodium azide (NaN3) at 50 μM and hydrogen peroxide (H2O2) at 100 μM. […] Controls were also included where 100 ng of pUC18 was exposed to 0.1% (v/v) DMSO, and the activity of the HindIII restriction enzyme (linearized plasmid control) for 24 h. All the samples were adjusted to a final volume of 20 μL and incubated for 24 hs at 37 °C. […] The electrophoresis gel image was acquired in Gel Doc EZ Imager (Bio-Rad) and band quantification was performed using ImageJ software.

[1] = Stability in solution by UV-vis spectrophotometry; type: physicochemical; details: c = 25 μM, spectra every 4 h for 72 h
Experimental: The stability of Cu1a-d and Cu2a-d was assessed using a spectrophotometric method. Absorption spectra of the Cu(II) complexes were collected every 4 h for 72 h in DMSO and phosphate-buffered saline (PBS) solutions (c = 25 μM) (see Figure S6 and Table S9 in ESI). The diluted solutions in a water-based medium were prepared from concentrated (50 mM) stock solutions in DMSO. […] In contrast, Cu(II) complexes with dtpy-based ligands (Cu2a–d) decomposed within a few minutes in DMSO, showing UV–vis spectra almost overlapping with those of the free ligands (Figure S7). […] In PBS, compounds Cu2a–d tended to aggregate rapidly due to the release of the organic ligand, which is insoluble in water.
Infrared spectra were performed with the KBr technique on a Nicolet iS5 FT-IR spectrophotometer in the range of 4000–400 cm^–1. Elemental analyses (C, H, N) were recorded on a Perkin–Elemer CHN–2400 analyzer. HR-ESI-MS analyses were performed on a maXis Impact Q-TOF mass spectrometer (Bruker Daltonics) or a Xevo G2 Q-TOF mass spectrometer (Waters Corporation, USA), both with an ESI ion source operating in positive-ion mode. Samples were diluted in LC-MS grade acetonitrile. The accurate mass and composition for the molecular ion adducts were calculated using Data Analysis 4.1 software (Bruker, Germany) or MassLynx software (Waters). […] The eluted compounds were monitored in the range 190–400 nm. […]

SMILES | pDNA cleavage / isoform change (pUC18 plasmid DNA (pDNA)) | pDNA cleavage in presence of NaN3 scavenger (pUC18 plasmid DNA (pDNA)) | pDNA cleavage in presence of H2O2 (pUC18 plasmid DNA (pDNA)) | stability/solubility in PBS [1]
[Cl][Cu-3]12([Cl])[n+]3ccccc3-c3cc(-c4cccc5ccccc45)cc([n+]31)-c1cccc[n+]12 [Cu1a] | an increase in the circular form (N) was observed compared to negative control with the simultaneous decrease of the supercoiled isoform | an increase in the supercoiled isoform and a reduction in the nicked isoform | pDNA cleavage increased compared to H2O2 alone | no solubility issues were observed
[Cl][Cu-3]12([Cl])[n+]3ccccc3-c3cc(-c4ccc5ccccc5c4)cc([n+]31)-c1cccc[n+]12 [Cu1b] | a decrease in supercoiled forms and an increase in the intensity of the circular isoform at concentrations of 25 and 50 μM | an increase in the supercoiled isoform and a decrease in the nicked isoform | a complete disappearance of pDNA isoforms is observed | no solubility issues were observed
